The text below walks through data of patent US12624057B2, “Bisphosphonate quinolone conjugates and uses thereof” (BIOVINC, LLC, priority 2016, dated 2026).

The test system of series [1] is biofilms of S. aureus strain ATCC-6538. Briefly: Preformed biofilms on polystyrene, S. aureus. In kind it is cell-based, Staphylococcus aureus. On the procedure:
(§1) Antimicrobial susceptibility testing of BP-ciprofloxacin against preformed biofilms of S. aureus strain ATCC-6538 and P. aeruginosa strain ATCC-15442: Strains cultured on appropriate agar plates (Columbia agar plate for S. aureus; MacConkey agar plate for P. aeruginosa) were transferred to liquid microbiological media and incubated for 24 h/37° C. under aerobic conditions. After incubation, strains were diluted to the density of 1 MF. The microbial dilutions were introduced to wells of 24-well plates containing HA discs as a substrate, or simply to polystyrene wells where the bottom surface of the wells served as the substrate for biofilm development. Strains were incubated at 37° C. for 4 hrs. Next, the microbe-containing solutions were removed from the wells. The surfaces, HA discs and polystyrene plates, were gently rinsed to leave adhered cells and to remove planktonic or loosely-bound microbes. Surfaces prepared in this manner were immersed in fresh TSB medium containing 0.24-125 mg/L of BP-ciprofloxacin conjugate. After 24 hrs of incubation at 37° C. the surfaces were rinsed using physiological saline solution and transferred to 1 mL of 0.5% saponin (Sigma-Aldrich, St Louis, MO). The surfaces were vortex-mixed vigorously for 1 minute to detach cells. Subsequently, all microbial suspensions were diluted 10 to 10^9 times. Each dilution ([…]) was cultured on the appropriate stable medium (MacConkey, Columbia for P. aeruginosa and S. aureus, respectively) and incubated at 37-C for 24 hours. After this time, the microbial colonies were counted and the number of cells forming biofilm was assessed. […]
(§2) Antimicrobial susceptibility testing of 6 against preformed biofilms of S. aureus strain ATCC-6538 and P. aeruginosa strain ATCC-15442: Strains cultured on appropriate agar plates (Columbia agar plate for S. aureus; MacConkey agar plate for P. aeruginosa) were transferred to liquid microbiological media and incubated for 24 hrs/37° C. under aerobic conditions. […] After this time, the microbial colonies were counted and the number of cells forming biofilm was assessed. […]

Series [2] relates to biofilms of P. aeruginosa strain ATCC-15442. Briefly: Preformed biofilms on polystyrene, P. aeruginosa. It is filed as cell-based, Pseudomonas aeruginosa. Particulars: polystyrene substrate, tested range of concentrations. On the procedure:
as §1, §2

Series [3] deals with biofilms of S. aureus strain ATCC-6538. Briefly: Preformed biofilms on HA discs, S. aureus. It is filed as cell-based, Staphylococcus aureus. Conditions: for bactericidal activity / reduction of CFUs against established biofilm (in words): HA as substrate. On the procedure:
Antimicrobial susceptibility testing of BP-ciprofloxacin against preformed biofilms of S. aureus strain ATCC-6538 and P. aeruginosa strain ATCC-15442: Strains cultured on appropriate agar plates (Columbia agar plate for S. aureus; MacConkey agar plate for P. aeruginosa) were transferred to liquid microbiological media and incubated for 24 h/37° C. under aerobic conditions. After incubation, strains were diluted to the density of 1 MF. The microbial dilutions were introduced to wells of 24-well plates containing HA discs as a substrate, or simply to polystyrene wells where the bottom surface of the wells served as the substrate for biofilm development. Strains were incubated at 37° C. for 4 hrs. Next, the microbe-containing solutions were removed from the wells. The surfaces, HA discs and polystyrene plates, were gently rinsed to leave adhered cells and to remove planktonic or loosely-bound microbes. Surfaces prepared in this manner were immersed in fresh TSB medium containing 0.24-125 mg/L of BP-ciprofloxacin conjugate. After 24 hrs of incubation at 37° C. the surfaces were rinsed using physiological saline solution and transferred to 1 mL of 0.5% saponin (Sigma-Aldrich, St Louis, MO). The surfaces were vortex-mixed vigorously for 1 minute to detach cells. Subsequently, all microbial suspensions were diluted 10 to 10^9 times. Each dilution ([…]) was cultured on the appropriate stable medium (MacConkey, Columbia for P. aeruginosa and S. aureus, respectively) and incubated at 37-C for 24 hours. After this time, the microbial colonies were counted and the number of cells forming biofilm was assessed. Results were presented as the mean number of CFU per square millimeter surface±standard error of the mean. To estimate the exact surface area of HA discs, x-ray tomographic analysis was applied. For estimation of the area of test plate bottoms, the equation for circle area: πr2 was applied.
Antimicrobial susceptibility testing of 6 against preformed biofilms of S. aureus strain ATCC-6538 and P. aeruginosa strain ATCC-15442: Strains cultured on appropriate agar plates (Columbia agar plate for S. aureus; MacConkey agar plate for P. aeruginosa) were transferred to liquid microbiological media and incubated for 24 hrs/37° C. under aerobic conditions. After incubation, strains were diluted to the density of 1 MF. The microbial dilutions were introduced to wells of 24-well plates containing HA discs as a substrate, or simply to polystyrene wells where the bottom surface of the wells served as the substrate for biofilm development. Strains were incubated at 37° C. for 4 hrs. Next, the microbe-containing solutions were removed from the wells. The surfaces, HA discs and polystyrene plates, were gently rinsed to leave adhered cells and to remove planktonic or loosely-bound microbes. […] After 24 hrs of incubation at 37° C. the surfaces were rinsed using physiological saline solution and transferred to 1 mL of 0.5% saponin (Sigma-Aldrich, St Louis, MO). The surfaces were vortex-mixed vigorously for 1 minute to detach cells. Subsequently, all microbial suspensions were diluted 10-1 to 10-9 times. Each dilution ([…]) was cultured on the appropriate stable medium (MacConkey, Columbia for P. aeruginosa and S. aureus, respectively) and incubated at 37° C. for 24 hrs. After this time, the microbial colonies were counted and the number of cells forming biofilm was assessed. Results were presented as the mean number of CFU per square millimeter surface±standard error of the mean. To calculate the surface area of HA discs, x-ray tomographic analysis was applied. For estimation of the area of test plate bottoms, the equation for circle area: πr^2 was applied.

The conditions of series [4]: 24 h.
Protocol: Next, solutions were left for 24 h/37° C./shaking. After incubation, absorbance was measured once again. To assess for degradation of conjugate, values of absorbance taken at 0 hr and 24 hrs were compared.
Series [5] concerns Aggregatibacter actinomycetemcomitans biofilms on titanium implants. Briefly: Rat jawbone peri-implant osteomyelitis model, first animal experiment. In kind it is in vivo, Sprague-Dawley rats. Conditions: conjugate, 0.3 mg/kg ×3 over a week (0.9 mg/kg total).
The test system is the same in series [6]. Briefly: Rat jawbone peri-implant osteomyelitis model, second animal experiment. Conditions: for reduction of mean CFU/gram of tissue versus control (in words): single high dose 10 mg/kg, 10 mg/kg.
In another series the test system is S. aureus 6538. Kind of series: Preventative assay, HA spherules pretreated then inoculated with S. aureus. It is filed as cell-based, Staphylococcus aureus. On the procedure: Preventative ability of BP-ciprofloxacin conjugate to inhibit S. aureus 6538 adherence to HA spherules: Various BP-ciprofloxacin concentrations were introduced to HA powder (spherules) suspended in TSB microbiological medium. Solutions containing conjugate and HA spherules were introduced to wells of 24-well plates. Final concentrations of powder were 10 mg/1 mL, while final concentrations of the conjugate were 0.12-250 mg/L. Suspensions were left for 24 h/37° C./shaking. After 24 h, suspensions were removed from the wells and impulse-centrifuged to precipitate HA powder. Next, supernatant was very gently discarded and a fresh 1 mL of S. aureus of density 10^5 cfu/mL was introduced to the HA spherules. Subsequently, this solution was shaken, absorbance was measured using 580 nm wavelength and left for 24 h/37° C./shaking. After incubation absorbance was measured again and values from 0 hr and 24 hrs were compared to assess reduction of bacterial growth with regard to control sample one (bacterial suspension but no spherules) and control sample two (bacterial suspension+spherules but with no conjugate added). Additionally, solutions were impulse-centrifuged, supernatant was gently discarded, while bacteria-containing HA spherules were culture plated as before and quantitatively assessed. […]

The mark [7] stands for this setting: HA discs as substrate (Example 1).
Setting [8] is: HA discs as substrate (Example 5).

Molecules are shown by their SMILES. Entries after “also recorded” stand apart in the source; their conditions may differ.

As to `O=C(O)c1cn(C2CC2)c2cc(N3CCN(C(=O)Oc4ccc(CC(P(=O)(O)O)P(=O)(O)O)cc4)CC3)c(F)cc2c1=O` [Compound 6, 1-cyclopropyl-7-(4-((4-(2,2-diphosphonoethyl)phenoxy)carbonyl)piperazin-1-yl)-6-fluoro-4-oxo-1,4-dihydroquinoline-3-carboxylic acid], the “minimal biofilm inhibitory concentration (MBIC50)” value in series [1] (polystyrene substrate (Example 1)) and in series [1] (polystyrene substrate (Example 5)) was 15.6 to 31.2 µg/mL throughout. Besides, the MBIC90 entry was “no MBIC90 was observed for either pathogen” in series [1] (polystyrene substrate, tested range of concentrations); “no MBIC90 was observed for either pathogen” in series [2]; 50 µg/mL in series [3] (setting [7]); 100 µg/mL in series [3] (setting [8]). Further, the MBIC50 result in series [2] is “No MBIC50 was observed”; in series [2] (listed as BP-ciprofloxacin) it was “no MBIC^50 was observed”; in series [3] (setting [7]) it was 8 µg/mL; in series [3] (setting [8]), 16 µg/mL. Further, the “bactericidal activity / reduction of CFUs against established biofilm (in words)” value in series [3] is “statistically significant (p<0.05, Kruskal-Wallis test) bactericidal activity”; in series [3] (listed as BP-ciprofloxacin) it was “statistically significant bactericidal activity”; in series [3] (listed as conjugate), “statistically significant bactericidal activity and reduction of colony forming units”. The “stability in trypticase soy broth microbiological media” value in series [4] is listed as “no degradation is observed after 24 hrs”. The same molecule had a bacterial killing in series [5] of 100%. For the same molecule, the “recovery of bacteria (in words)” value was “no recoverable bacteria” in series [5] and “no recovery of Aa; also recorded: no recoverable bacteria” in series [5] (listed as BP-ciprofloxacin). The “peri-implant inflammation at resection (in words)” value in series [6] (majority of animals in the treatment groups) was “non-inflamed peri-implant tissues”. Also, the “significance of CFU reduction versus control (in words)” value in series [6] (multiple low dose 0.3 mg/kg 3×/week) is listed as “not for the multiple low dose group”. In addition, the “kill of Aa in peri-implant tissue” value in series [6] (single dose 10 mg/kg) was “approximately 6 log units”. Also, the “reduction of mean CFU/gram of tissue versus control (in words)” value is “revealed significance for the single high dose of 6 treatment as compared to the control; also recorded: greatest CFU reduction and efficacy was observed at the single high dose; also recorded: greatest efficacy was observed at a single high dose” in series [6]; “greatest efficacy and was highly statistically significant; also recorded: greatest efficacy was again observed at a single high dose” in series [6] (listed as BCC).
As to `O=C(O)c1cn(C2CC2)c2cc(N3CCNCC3)c(F)cc2c1=O` [ciprofloxacin, reference compound], in series [3], the “bactericidal activity / reduction of CFUs against established biofilm (in words)” value is “statistically significant bactericidal activity”. The MBIC90 in series [3] (setting [7]) and in series [3] (setting [8]) was 8 µg/mL in each case. Moreover, in the series on S. aureus 6538, the “concentration giving the only significant reduction” value is 400 µg/mL.
